Assay results published in PMC13171625, “Breaking the ‘rule-of-five’ to access bridged bicyclic heteroaromatic bioisosteres” (Nature Synthesis, 2026).
Read-outs that look alike come from different tables or passages of the source.

Tests used:
[1] = Metabolic stability in human liver microsomes; details: for Remaining (T60): 60 min; for Remaining (NCF60): 1 h incubation, human liver microsomes, no co-factor (no NADPH); for remaining at 5 min, 1 μM / CLint scaled at 1 μM / half-life at 1 μM / remaining at 0.5 h, 1 μM / remaining at 0.75 h, 1 μM / microsomal CLint at 1 μM: human
[2] = human, microsomes
[3] = reference substances used to obtain the regression equation; cited from earlier work
[4] = LogP Assay (HPLC retention, pH 7.4); details: X-Bridge C18 column (retention-time method)
[5] = in vitro; details: human, microsomes
[6] = physchem; details: pH 7.4
[7] = human liver microsomes with NADPH

| SMILES | Remaining (T60) [1, 7] [%] | Remaining (NCF60) [1] [%] | CLint scaled at 1 μM ([1]; liver microsomes) [mL/min/kg] | half-life at 1 μM ([1]; liver microsomes) [min] | remaining at 5 min, 1 μM ([1]; liver microsomes) [%] | remaining at 0.5 h, 1 μM ([1]; liver microsomes) [%] | remaining at 0.75 h, 1 μM ([1]; liver microsomes) [%] | Log P of reference substance [3] | also measured |
| --- | --- | --- | --- | --- | --- | --- | --- | --- | --- |
| O=C(O)Cc1ccccc1Nc1c(Cl)cccc1Cl [Diclofenac] | 0.1 | 96.1 | 209 | 6 | 49.4 | 2.6 | 0.5 | – | %Remaining ([1]; 15 min, human liver microsomes with NADPH): 15.6%; CLint(mic) (microsome intrinsic clearance) ([1]; human liver microsomes 0.5 mg/mL, 1 μM compound, NADPH): 232.5 µL/min/mg |
| CCc1ccccc1 [Ethylbenzene] | – | – | – | – | – | – | – | 3.2 | – |
| CC(=O)c1ccncc1 [4-Acetylpyridine] | – | – | – | – | – | – | – | 0.5 | – |
| COc1ccc(S(=O)(=O)N2CCN(C(=O)OCc3ccccc3)CC2C(=O)NO)cc1 (stereo not shown) [DB04232] | 30.6 | 110.2 | 34.6 | 36 | 82 | 59.3 | 38.5 | – | chromatographic logP [4]: 1.43; microsomal CLint at 1 μM ([1]; liver microsomes): 38.5 µL/min/mg |
| COc1ccc(S(=O)(=O)N2C3CN(C(=O)OCc4ccccc4)CC2(C(=O)NO)C3)cc1 (stereo not shown) [compound 68] | – | – | – | – | – | – | – | – | CLint scaled at 1 μM [5]: 34.3 mL/min/kg; half-life at 1 μM [5]: 36.3 min; remaining at 5 min, 1 μM [5]: 71.3%; remaining at 0.5 h, 1 μM [5]: 45.9%; remaining at 0.75 h, 1 μM [5]: 36.6%; chromatographic logP [6]: 0.946; microsomal CLint at 1 μM ([1]; microsomes): 38.1 µL/min/mg; metabolic stability compared with DB04232 ([2]; 1 μM): at least as metabolically stable as DB04232; Remaining (NCF60) ([2]; 1 h, 1 μM): 86.9%; Remaining (T60) ([2]; 1 h, 1 μM): 28.3% |
